According to patent publication US20100285959A1, “HERBICIDAL MIXTURES” (priority 2006, published 2010):

Assays:
[1] = tested on: common lambsquarters (CHEAL); assay: Test 25 field trial, postemergence, growth as percent of control; type: in vivo, Chenopodium album
Source text: (§1) Corn seeds (hybrid ‘Pioneer 31G96 RR’) were planted in mid spring season, 3.8 cm deep in a clay loam soil having 2% organic matter and a pH of 6.6. Plots were 6.1 m long by 3.0 m wide with rows spaced 76 cm apart. Seeds were spaced 15 cm apart within the rows. The field was managed using conventional tillage practices. […] Giant ragweed and Pennsylvania smartweed could only be evaluated 14 days after application. […] Results are the means of the three replicates. This growth inhibition data was converted to results in the form of “plant growth as a percent of control plant growth” using the calculation “100 minus growth inhibition”.
(§2) When this form of Colby's Equation is used, if the observed effects on weeds are less than the expected values, the mixture is synergistic.

giant ragweed (AMBTR) = assay: as above; type: in vivo, Ambrosia trifida; conditions: 14 DAA
Source text: as §1, §2

velvetleaf (ABUTH) = assay: as above; type: in vivo, Abutilon theophrasti
Source text: as §1, §2

common ragweed (AMBEL) = assay: as above; type: in vivo, Ambrosia artemisiifolia
Source text: as §1, §2

redroot pigweed (AMARE) [2] = assay: as above; type: in vivo, Amaranthus retroflexus
Source text: as §1, §2

[3] = tested on: Pennsylvania smartweed (POLPY); assay: as above; type: in vivo, Polygonum pensylvanicum; conditions: 14 DAA
Source text: as §1, §2

corn (ZEAMD) = assay: as above; type: in vivo, Zea mays ssp. indentata
Source text: as §1, §2

giant foxtail (SETFA) = assay: as above; type: in vivo, Setaria faberi
Source text: as §1, §2

common chickweed (STEME) = assay: Test 24 growth chamber, postemergence; type: in vivo, Stellaria media; conditions: 17 DAA
Method: (§3) Plants were treated postemergence at the 2-4 leaf growth stage, and each treatment was replicated three times. […] Plants were watered as needed. […] Results for barley and wheat are the means across varieties of the three replicates, and results for the weeds are the means of the three replicates.

galium (GALAP) = assay: Test 24 growth chamber, postemergence; type: in vivo, Galium aparine; conditions: 17 DAA
Method: as §3

field poppy (PAPRH) = assay: Test 24 growth chamber, postemergence; type: in vivo, Papaver rhoeas; conditions: 17 DAA
Method: as §3

[4] = tested on: common lambsquarters (CHEAL); assay: Test 24 growth chamber, postemergence; type: in vivo, Chenopodium album; conditions: 17 DAA
Method: as §3

redroot pigweed (AMARE) [5] = assay: Test 24 growth chamber, postemergence; type: in vivo, Amaranthus retroflexus; conditions: 17 DAA
Method: as §3

field violet (VIOAR) = assay: Test 24 growth chamber, postemergence; type: in vivo, Viola arvensis; conditions: 17 DAA
Method: as §3

Russian thistle (SASKR) = assay: Test 24 growth chamber, postemergence; type: in vivo, Salsola kali; conditions: 17 DAA
Method: as §3

kochia (KCHSC) = assay: Test 24 growth chamber, postemergence; type: in vivo, Kochia scoparia; conditions: 17 DAA
Method: as §3

wild buckwheat (POLCO) = assay: Test 24 growth chamber, postemergence; type: in vivo, Polygonum convolvulus; conditions: 17 DAA
Method: as §3

wild mustard (SINAR) = assay: Test 24 growth chamber, postemergence; type: in vivo, Sinapis arvensis; conditions: 17 DAA
Method: as §3

wild chamomile (MATCH) = assay: Test 24 growth chamber, postemergence; type: in vivo, Matricaria chamomilla; conditions: 17 DAA
Method: as §3

[6] = Diflufenzopyr 30 g a.i./ha, 14 DAA
[7] = Diflufenzopyr 30 g a.i./ha, 28 DAA
[8] = Diflufenzopyr 30 g a.i./ha, 56 DAA
[9] = Diflufenzopyr 45 g a.i./ha, 14 DAA
[10] = Diflufenzopyr 45 g a.i./ha, 28 DAA
[11] = Diflufenzopyr 45 g a.i./ha, 56 DAA
[12] = Nicosulfuron 15 g a.i./ha, 14 DAA
[13] = Nicosulfuron 15 g a.i./ha, 28 DAA
[14] = Nicosulfuron 15 g a.i./ha, 56 DAA

C/C(=N\NC(=O)Nc1cc(F)cc(F)c1)c1ncccc1C(=O)O [Diflufenzopyr]
CHEAL Obs (percent of control) [1, 6]: 50%
CHEAL Obs (percent of control) [1, 7]: 78%
CHEAL Obs (percent of control) [1, 8]: 10%
CHEAL Obs (percent of control) [1, 9]: 45%
CHEAL Obs (percent of control) [1, 10]: 65%
CHEAL Obs (percent of control) [1, 11]: 0%
AMBTR Obs (percent of control) (giant ragweed (AMBTR); Diflufenzopyr 45 g a.i./ha): 75%
ABUTH Obs (percent of control) (velvetleaf (ABUTH); [6]): 28%
ABUTH Obs (percent of control) (velvetleaf (ABUTH); [7]): 58%
ABUTH Obs (percent of control) (velvetleaf (ABUTH); [8]): 33%
ABUTH Obs (percent of control) (velvetleaf (ABUTH); [9]): 15%
ABUTH Obs (percent of control) (velvetleaf (ABUTH); [10]): 55%
ABUTH Obs (percent of control) (velvetleaf (ABUTH); [11]): 40%
AMBEL Obs (percent of control) (common ragweed (AMBEL); [6]): 60%
AMBEL Obs (percent of control) (common ragweed (AMBEL); [7]): 73%
AMBEL Obs (percent of control) (common ragweed (AMBEL); [8]): 83%
AMBEL Obs (percent of control) (common ragweed (AMBEL); [9]): 57%
AMBEL Obs (percent of control) (common ragweed (AMBEL); [10]): 60%
AMBEL Obs (percent of control) (common ragweed (AMBEL); [11]): 75%
AMARE Obs (percent of control) (redroot pigweed (AMARE) [2]; [6]): 48%
AMARE Obs (percent of control) (redroot pigweed (AMARE) [2]; [7]): 63%
AMARE Obs (percent of control) (redroot pigweed (AMARE) [2]; [8]): 30%
AMARE Obs (percent of control) (redroot pigweed (AMARE) [2]; [9]): 47%
AMARE Obs (percent of control) (redroot pigweed (AMARE) [2]; [10]): 55%
AMARE Obs (percent of control) (redroot pigweed (AMARE) [2]; [11]): 55%
POLPY Obs (percent of control) ([3]; Diflufenzopyr 30 g a.i./ha): 30%
POLPY Obs (percent of control) ([3]; Diflufenzopyr 45 g a.i./ha): 35%
ZEAMD Obs (percent of control) (corn (ZEAMD); [6]): 100%
ZEAMD Obs (percent of control) (corn (ZEAMD); [7]): 83%
ZEAMD Obs (percent of control) (corn (ZEAMD); [8]): 100%
ZEAMD Obs (percent of control) (corn (ZEAMD); [9]): 100%
ZEAMD Obs (percent of control) (corn (ZEAMD); [10]): 88%
ZEAMD Obs (percent of control) (corn (ZEAMD); [11]): 100%
SETFA Obs (percent of control) (giant foxtail (SETFA); [6]): 40%
SETFA Obs (percent of control) (giant foxtail (SETFA); [7]): 60%
SETFA Obs (percent of control) (giant foxtail (SETFA); [8]): 68%
SETFA Obs (percent of control) (giant foxtail (SETFA); [9]): 40%
SETFA Obs (percent of control) (giant foxtail (SETFA); [10]): 58%
SETFA Obs (percent of control) (giant foxtail (SETFA); [11]): 60%

Nc1c(Cl)c(F)nc(OCC(=O)O)c1Cl [Fluroxypyr]
STEME Obs (scale 0 to 100) (common chickweed (STEME); Fluroxypyr 62 g a.i./ha): 75
STEME Obs (scale 0 to 100) (common chickweed (STEME); Fluroxypyr 125 g a.i./ha): 83
GALAP Obs (scale 0 to 100) (galium (GALAP); Fluroxypyr 62 g a.i./ha): 80
GALAP Obs (scale 0 to 100) (galium (GALAP); Fluroxypyr 125 g a.i./ha): 85
PAPRH Obs (scale 0 to 100) (field poppy (PAPRH); Fluroxypyr 62 g a.i./ha): 65
PAPRH Obs (scale 0 to 100) (field poppy (PAPRH); Fluroxypyr 125 g a.i./ha): 73
CHEAL Obs (scale 0 to 100) ([4]; Fluroxypyr 62 g a.i./ha): 47
CHEAL Obs (scale 0 to 100) ([4]; Fluroxypyr 125 g a.i./ha): 58
AMARE Obs (scale 0 to 100) (redroot pigweed (AMARE) [5]; Fluroxypyr 62 g a.i./ha): 67
AMARE Obs (scale 0 to 100) (redroot pigweed (AMARE) [5]; Fluroxypyr 125 g a.i./ha): 77
VIOAR Obs (scale 0 to 100) (field violet (VIOAR); Fluroxypyr 62 g a.i./ha): 73
VIOAR Obs (scale 0 to 100) (field violet (VIOAR); Fluroxypyr 125 g a.i./ha): 82
SASKR Obs (scale 0 to 100) (Russian thistle (SASKR); Fluroxypyr 62 g a.i./ha): 75
SASKR Obs (scale 0 to 100) (Russian thistle (SASKR); Fluroxypyr 125 g a.i./ha): 75
KCHSC Obs (scale 0 to 100) (kochia (KCHSC); Fluroxypyr 62 g a.i./ha): 68
KCHSC Obs (scale 0 to 100) (kochia (KCHSC); Fluroxypyr 125 g a.i./ha): 73
POLCO Obs (scale 0 to 100) (wild buckwheat (POLCO); Fluroxypyr 62 g a.i./ha): 68
POLCO Obs (scale 0 to 100) (wild buckwheat (POLCO); Fluroxypyr 125 g a.i./ha): 75
SINAR Obs (scale 0 to 100) (wild mustard (SINAR); Fluroxypyr 62 g a.i./ha): 75
SINAR Obs (scale 0 to 100) (wild mustard (SINAR); Fluroxypyr 125 g a.i./ha): 75
MATCH Obs (scale 0 to 100) (wild chamomile (MATCH); Fluroxypyr 62 g a.i./ha): 60
MATCH Obs (scale 0 to 100) (wild chamomile (MATCH); Fluroxypyr 125 g a.i./ha): 65

COc1cc(OC)nc(NC(=O)NS(=O)(=O)c2ncccc2C(=O)N(C)C)n1 [Nicosulfuron]
CHEAL Obs (percent of control) [1, 12]: 95%
CHEAL Obs (percent of control) [1, 13]: 72%
CHEAL Obs (percent of control) [1, 14]: 53%
AMBTR Obs (percent of control) (giant ragweed (AMBTR); Nicosulfuron 15 g a.i./ha): 100%
ABUTH Obs (percent of control) (velvetleaf (ABUTH); [12]): 48%
ABUTH Obs (percent of control) (velvetleaf (ABUTH); [13]): 73%
ABUTH Obs (percent of control) (velvetleaf (ABUTH); [14]): 100%
AMBEL Obs (percent of control) (common ragweed (AMBEL); [12]): 95%
AMBEL Obs (percent of control) (common ragweed (AMBEL); [13]): 100%
AMBEL Obs (percent of control) (common ragweed (AMBEL); [14]): 100%
AMARE Obs (percent of control) (redroot pigweed (AMARE) [2]; [12]): 2%
AMARE Obs (percent of control) (redroot pigweed (AMARE) [2]; [13]): 2%
AMARE Obs (percent of control) (redroot pigweed (AMARE) [2]; [14]): 33%
POLPY Obs (percent of control) ([3]; Nicosulfuron 15 g a.i./ha): 28%
ZEAMD Obs (percent of control) (corn (ZEAMD); [12]): 100%
ZEAMD Obs (percent of control) (corn (ZEAMD); [13]): 100%
ZEAMD Obs (percent of control) (corn (ZEAMD); [14]): 100%
SETFA Obs (percent of control) (giant foxtail (SETFA); [12]): 15%
SETFA Obs (percent of control) (giant foxtail (SETFA); [13]): 11%
SETFA Obs (percent of control) (giant foxtail (SETFA); [14]): 7%
